Test results published in article PMC6952103, “Biochemical characterization of Ty1 retrotransposon protease” (PLoS ONE, 2020).
Several values for one entry are separate records, joined by “and”; a condition that tells them apart may be missing. Equal values may be shown once.

Assays:
XMRV PR = conditions: ref [45]; cited from earlier work
From the text: Despite the fact that out of the tested inhibitors only acet ...

Ty1 PR-His6 [1] = target: T1, Ty1 PR-His6 (Saccharomyces cerevisiae, UniProt Q07793); assay: Inhibition study of Ty1 PR-His6; format: biochemical; conditions: Ty1 PR-His6 (400–1600 nM), VPTIN*NVHTS 0.44 mM, inhibitor ≥100 nM final, DMSO, peptide buffer A, 2 h at 30°C
T1 construct: made in house; host or cells: E. coli BL21(DE3), pET11a Gag-PR-His6 (gift of J.F. Lawler); soluble fraction, Ni-chelate chromatography, autoprocessed
T1 sequence (Q07793 402-582 limits assumed): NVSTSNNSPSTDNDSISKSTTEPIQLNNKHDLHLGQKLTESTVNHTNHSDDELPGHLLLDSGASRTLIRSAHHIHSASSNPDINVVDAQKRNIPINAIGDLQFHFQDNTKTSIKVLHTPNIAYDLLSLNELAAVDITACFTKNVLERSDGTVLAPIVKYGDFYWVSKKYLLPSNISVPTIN
Experimental: Ty1 PR-His6 activity was measured in the presence of various HIV-1 protease inhibitors. […] To study effect of inhibitors on proteolytic activity, reaction mixtures contained 5 μl purified Ty1 PR-His6 (400–1600 nM), 10 μl peptide buffer A, 4.8 μl oligopeptide substrate (VPTIN*NVHTS, 0.44 mM), and 0.2 μl inhibitor. For screening, inhibitors were dissolved in DMSO to have ≥100 nM final concentration. DMSO solution containing no inhibitor was used as control. Reaction mixtures were incubated for 2 h at 30°C.

HIV-1 PR = conditions: cited from earlier work
From the text: For instance, the optimal pH of HFV protease is 6.6–6.8 [40] while that of HIV-1 PR is between 4 and 6 [41]. […] Higher sensitivity to urea implies lower dimer stability for Ty1 protease, the possible structural background of this difference is discussed later in the In silico structural analysi ... || (+ 1 further places)

Ty1 PR-His6 [2] = target: T1, Ty1 PR-His6; assay: Oligopeptide-based proteolytic assay (HPLC), Ty1 PR-His6; format: biochemical; conditions: for cleavage (in words): Ty1 PR-His6, oligopeptide substrate 2 mg/ml stock, 2 up to 5 h
Experimental: (§1) The oligopeptides used in the proteolytic assays (Table 1A) were synthesized as previously described. Reaction mixtures contained 10 μl peptide buffer A (20 mM PIPES, 100 mM NaCl, 0.5% Nonidet P-40, 10% glycerol, 2 mM dithiotreitol (DTT), pH 7.0), 5 μl purified Ty1 PR-His6 (processed from Ty1 Gag-PR-His6) or Ty1 PR, and 5 μl oligopeptide substrate (2 mg/ml) dissolved in water. Reaction mixtures were incubated for the different experiments from 2 up to 5 h at 30°C. The reactions were stopped by the addition of 180 μl 1% trifluoroacetic acid (TFA).
(§2) The products were separated by an HPLC-based method using a 0–100% water-acetonitrile gradient in the presence of TFA on Merck Hitachi instrument. For enzyme kinetic measurements, VPTIN*NVHTS oligopeptide substrate (representing Ty1 PR/IN cleavage site) was used at 0.2–1.2 mM; Ty1 PR (400–1600 nM) was incubated with the substrate at 30 °C for 2 h, whereas Ty1 PR-His6 (500–1500 nM) was incubated for 2.5 h. Kinetic parameters (shown in Table 1A) were determined by fitting the data obtained at less than 20% substrate hydrolysis to the Michaelis-Menten equation using GraphPad Prism version 5.00 for Windows (GraphPad Software, La Jolla California USA, www.graphpad.com). Statistical significances were determined by GraphPad QuickCalcs (https://www.graphpad.com/quickcalcs/ttest2).
(§3) For investigation of optimal conditions for enzyme folding, Ty1 PR was dialyzed against various buffers and buffer combinations that have been shown previously to be suitable for retroviral protease activity. In peptide-based assays, both protease and oligopeptide solutions were added to the buffer, and the reaction mixtures were incubated at 30°C, and stopped by the addition TFA. The mixtures were then injected onto a reversed-phase chromatography column in order to separate substrates and cleavage products, the substrate turnover was determined by integration of peak areas.

Ty1 PR = target: T2, Ty1 PR (Saccharomyces cerevisiae, UniProt Q07793); assay: Oligopeptide-based proteolytic assay (HPLC), untagged Ty1 PR; format: biochemical; conditions: peptide buffer A pH 7.0, 30 °C; for cleavage (in words): Ty1 PR, oligopeptide substrate 2 mg/ml stock, 2 up to 5 h
T2 construct: the protease domain of Ty1 is unusually long, consisting of 181 residues; made in house; host or cells: E. coli BL21(DE3), pET11a
T2 sequence (Q07793 402-582 limits assumed): T1 sequence (Q07793 402-582 limits assumed)
Experimental: as §1, §2, §3

HFV PR = conditions: ref [40], cited from earlier work; for kcat/Km: buffer optimized for that protease
From the text: Similarly low catalytic activities were also observed previously for HFV and the Gag-encoded Avian myeloblastosis virus (AMV) proteases. Both the untagged, and the His6-tagged (self-processed) PRs cleaved th ...

[3] = tested on: Copia transposon protease; conditions: ref [17], cited from earlier work
Experimental: The dependence of enzyme activity on ionic strength was studied, and highest activities were measured at 1.5–2 M NaCl concentration (Fig 4A). […] For instance, the optimal pH of HFV protease is 6.6–6.8 [40] while that of HIV-1 PR is between 4 and 6 [41].

[4] = peptide buffer A pH 7.0, 30 °C, HPLC
[5] = Ty1 PR-His6 (500–1500 nM), substrate 0.2–1.2 mM, peptide buffer A pH 7.0, 30 °C, 2.5 h, HPLC, SD (n≥2)
[6] = Ty1 PR (400–1600 nM), substrate 0.2–1.2 mM, 2 h, SD (n≥2)

O=C1N(Cc2ccc(CO)cc2)[C@H](Cc2ccccc2)[C@H](O)[C@@H](O)[C@@H](Cc2ccccc2)N1Cc1ccc(CO)cc1 [DMP-323]
inhibition (in words) (XMRV PR): able to inhibit
inhibition of proteolytic activity (in words) (Ty1 PR-His6 [1]): unable to inhibit

CC(C)CN(C[C@@H](O)[C@H](Cc1ccccc1)NC(=O)O[C@H]1CCOC1)S(=O)(=O)c1ccc(N)cc1 [amprenavir]
inhibition (in words) (XMRV PR): able to inhibit
inhibition of proteolytic activity (in words) (Ty1 PR-His6 [1]): unable to inhibit

COC(=O)N[C@H](C(=O)N[C@@H](Cc1ccccc1)[C@@H](O)CN(Cc1ccc(-c2ccccn2)cc1)NC(=O)[C@@H](NC(=O)OC)C(C)(C)C)C(C)(C)C [atazanavir]
inhibition (in words) (XMRV PR): able to inhibit
inhibition of proteolytic activity (in words) (Ty1 PR-His6 [1]): unable to inhibit

CC(C)CN(C[C@@H](O)[C@H](Cc1ccccc1)NC(=O)O[C@H]1CO[C@H]2OCC[C@H]21)S(=O)(=O)c1ccc(N)cc1 [darunavir]
inhibition (in words) (XMRV PR): able to inhibit
inhibition of proteolytic activity (in words) (Ty1 PR-His6 [1]): unable to inhibit

Cc1cccc(C)c1OCC(=O)N[C@@H](Cc1ccccc1)[C@@H](O)C[C@H](Cc1ccccc1)NC(=O)[C@H](C(C)C)N1CCCNC1=O [lopinavir]
inhibition (in words) (XMRV PR): able to inhibit
inhibition of proteolytic activity (in words) (Ty1 PR-His6 [1]): unable to inhibit

Cc1c(O)cccc1C(=O)N[C@@H](CSc1ccccc1)[C@H](O)CN1C[C@H]2CCCC[C@H]2C[C@H]1C(=O)NC(C)(C)C [nelfinavir]
inhibition of proteolytic activity (in words) (Ty1 PR-His6 [1]): unable to inhibit

CC(C)(C)NC(=O)[C@@H]1C[C@@H]2CCCC[C@@H]2CN1C[C@@H](O)[C@H](Cc1ccccc1)NC(=O)[C@H](CC(N)=O)NC(=O)c1ccc2ccccc2n1 [saquinavir]
inhibition of proteolytic activity (in words) (Ty1 PR-His6 [1]): unable to inhibit

CCC[C@@]1(CCc2ccccc2)CC(O)=C([C@H](CC)c2cccc(NS(=O)(=O)c3ccc(C(F)(F)F)cn3)c2)C(=O)O1 [tipranavir]
inhibition (in words) (XMRV PR): able to inhibit
inhibition of proteolytic activity (in words) (Ty1 PR-His6 [1]): unable to inhibit

HIV-1 PR: human immunodeficiency virus type 1 protease
activity at 37°C (in words) (HIV-1 PR; HIV-1 PR, 37°C, ref [41]): highly active
UC50 (urea) (HIV-1 PR; HIV-1 PR, ref [29]): 1.47 M

IHLIA*AVKAV [synthetic oligopeptide substrate representing the IN/RT cleavage site of Ty1]
cleavage (in words) (Ty1 PR-His6 [2]; [4]): no cleavage was observed
cleavage (in words) (Ty1 PR): no cleavage was observed
kcat/Km (HFV PR): 2 ± 0.4 M⁻¹ s⁻¹
Km (HFV PR): 1000 ± 160 µM
kcat (HFV PR): 0.0020 ± 0.0002 s⁻¹

T26S mutant HIV-1 protease
specific activity compared to wild-type (in words) (HIV-1 PR; T26S mutant, ref [49]): lower specific activity

TARAH*NVSTS [synthetic oligopeptide substrate representing the Gag/PR cleavage site of Ty1]
cleavage (in words) (Ty1 PR-His6 [2]; [4]): no cleavage was observed
cleavage (in words) (Ty1 PR): no cleavage was observed
hydrolysis (in words) (HFV PR): not hydrolyzed

VPTIN*NVHTS [synthetic oligopeptide substrate representing the PR/IN cleavage site of Ty1]
Km (Ty1 PR-His6 [2]; [5]): 250 ± 90 µM
kcat (Ty1 PR-His6 [2]; [5]): 0.009 ± 0.001 s⁻¹
kcat/Km (Ty1 PR-His6 [2]; [5]): 36 ± 13.2 M⁻¹ s⁻¹
cleavage (in words) (Ty1 PR-His6 [2]; [4]): cleaved
difference of specificity constants between untagged Ty1 PR and Ty1 PR-His6 (in words) (Ty1 PR-His6 [2]; Ty1 PR-His6 versus untagged Ty1 PR): not significant statistically
Km (Ty1 PR; [6]): 210 ± 70 µM
kcat (Ty1 PR; [6]): 0.006 ± 0.001 s⁻¹
kcat/Km (Ty1 PR; [6]): 28 ± 10.5 M⁻¹ s⁻¹
cleavage (in words) (Ty1 PR): cleaved
kcat/Km (HFV PR): 7 M⁻¹ s⁻¹ and 7 ± 2.4 M⁻¹ s⁻¹
Km (HFV PR): 30 ± 10 µM
kcat (HFV PR): 0.0002 ± 0.00003 s⁻¹

B1: Copia transposon protease: Copia transposon protease of D. melanogaster (protein, UniProt P04146 271-1409, looked up)
Copia protease: IAFMVKEVNNTSVMDNCGFVLDSGASDHLINDESLYTDSVEVVPPLKIAVAKQGEFIYATKRGIVRLRNDHEITLEDVLFCKEAAGNLMSVKRLQEAGMSIEFDKSGVTISKNGLMVVKNSGMLNNVPVINFQAYSINAKHKNNFRLWHERFGHISDGKLLEIKRKNMFSDQSLLNNLELSCEICEPCLNGKQARLPFKQLKDKTHIKRPLFVVHSDVCGPITPVTLDDKNYFVIFVDQFTHYCVTYLIKYKSDVFSMFQDFVAKSEAHFNLKVVYLYIDNGREYLSNEMRQFCVKKGISYHLTVPHTPQLNGVSERMIRTITEKARTMVSGAKLDKSFWGEAVLTATYLINRIPSRALVDSSKTPYEMWHNKKPYLKHLRVFGATVYVHIKNKQGKFDDKSFKSIFVGYEPNGFKLWDAVNEKFIVARDVVVDETNMVNSRAVKFETVFLKDSKESENKNFPNDSRKIIQTEFPNESKECDNIQFLKDSKESENKNFPNDSRKIIQTEFPNESKECDNIQFLKDSKESNKYFLNESKKRKRDDHLNESKGSGNPNESRESETAEHLKEIGIDNPTKNDGIEIINRRSERLKTKPQISYNEEDNSLNKVVLNAHTIFNDVPNSFDEIQYRDDKSSWEEAINTELNAHKINNTWTITKRPENKNIVDSRWVFSVKYNELGNPIRYKARLVARGFTQKYQIDYEETFAPVARISSFRFILSLVIQYNLKVHQMDVKTAFLNGTLKEEIYMRLPQGISCNSDNVCKLNKAIYGLKQAARCWFEVFEQALKECEFVNSSVDRCIYILDKGNINENIYVLLYVDDVVIATGDMTRMNNFKRYLMEKFRMTDLNEIKHFIGIRIEMQEDKIYLSQSAYVKKILSKFNMENCNAVSTPLPSKINYELLNSDEDCNTPCRSLIGCLMYIMLCTRPDLTTAVNILSRYSSKNNSELWQNLKRVLRYLKGTIDMKLIFKKNLAFENKIIGYVDSDWAGSEIDRKSTTGYLFKMFDFNLICWNTKRQNSVAASSTEAEYMALFEAVREALWLKFLLTSINIKLENPIKIYEDNQGCISIANNPSCHKRAKHIDIKYHFAREQVQNNVICLEYIPTENQLADIFTKPLPAARFVELRDKLGLLQDDQSNAE
modifications: Copia protease
notes: Copia transposon protease of D. melanogaster
relative activity ([3]; 20–70°C temperature range): ≥ 50%
NaCl concentration of highest activity ([3]; Copia transposon protease): 2 M
pH at which synthetic substrate is cleaved most efficiently ([3]; Copia transposon protease): 4.0
temperature of highest activity ([3]; Copia transposon protease): 70 °C
